The values that follow come from PMC11851430, “Workflow for E3 Ligase Ligand Validation for PROTAC Development” (ACS Chemical Biology, 2025).

The structures appear in SMILES notation.

In data set [1] the target is T1, PAK4A (Homo sapiens, UniProt O96013).
T1 construct: purchased in-house DSF panel (SGC-style construct names; the trailing A/B is a construct suffix)
As to the kind of experiment: DSF assay. Conditions: 20 µM compound. It counts as binding. For orientation: DSF heats the sample and reads unfolding from a dye or from intrinsic fluorescence.

Data set [2] deals with full-length AAK1 (Homo sapiens, UniProt Q2M2I8). Nature of the data set: NanoBRET target engagement assay, intact and permeabilized cells. Conditions: NanoBRET, mean of duplicates. (In general: BRET reads energy transfer from a luciferase to a nearby fluorophore.)
Description: Compounds were pipetted at various concentrations using an Echo acoustic dispenser (Labcyte), immediately followed by Tracer K10 (Promega, Tracer DB ID: T000008) for AAK1 and Aurora A and VHL Tracer (Promega, Tracer DB ID: T000019) for VHL, at an optimum KD concentration chosen from TracerDB ( tracerdb.org), respectively.
To measure the BRET signal, the NanoBRET® NanoGlo Substrate (Promega:
N1573) was added as per the manufacturer’s protocol, and filtered luminescence was measured on a PHERAstar plate reader (BMG Labtech) equipped with a luminescence filter pair (450 nm BP filter (donor) and 610 nm LP filter (acceptor)). For NanoBRET® measurement in permeabilized cells, 25 nL of digitonin (0.05 μg/μL) was pipetted into each well using an
After incubation, the BRET signals were measured by a PHERAstar plate reader (BMG Labtech) following the same procedure as intact NanoBRET® measurement. Competitive displacement data were then normalized to controls and were plotted using GraphPad Prism 9 software employing a normalized 3-parameter curve fit with the following equation:
In data set [3] the target is T2, MAP2K4 (Homo sapiens, UniProt P45985).
T2 construct: purchased in-house DSF panel (SGC-style construct names; the trailing A/B is a construct suffix)
T2 sequence (P45985 102-367): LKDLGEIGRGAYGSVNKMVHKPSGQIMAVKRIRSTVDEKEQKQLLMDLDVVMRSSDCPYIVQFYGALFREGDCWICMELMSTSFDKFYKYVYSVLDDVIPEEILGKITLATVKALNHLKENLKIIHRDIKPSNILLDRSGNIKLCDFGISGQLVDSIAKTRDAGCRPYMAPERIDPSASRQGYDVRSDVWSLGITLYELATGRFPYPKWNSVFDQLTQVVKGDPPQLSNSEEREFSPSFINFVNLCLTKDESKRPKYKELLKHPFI
Nature of the data set: DSF assay. It counts as binding. Conditions: 20 µM compound.

The test system of data set [4] is kinase protein levels in MCF-7 cells. As to the kind of experiment: TMT-labeled quantitative proteomics. The class given is cell-based, human.
The target in data set [5] is T3, kinase protein levels in MCF-7 cells (Homo sapiens, UniProt A0A096LP01).
T3 construct: endogenous in cells; host or cells: MCF-7
Nature of the data set: TMT-labeled quantitative proteomics. The class given is cell-based. The conditions noted are these: protein LINC00493.

For data set [6], the system named is Jurkat cells. Nature of the data set: CellTiterGlo cell viability assay. It counts as cell-based, human. Conditions: 24 h; for IC50: Homo sapiens, read-out: IC50±sd/μM (cell viability). Put shortly:
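Jurkat cells treated with compound titrations; viability read by CellTiter-Glo 2.0 luminescence after 10 min at room temperature, fitted to a four-parameter curve. Proteomics samples lysed in 2% SDS, 50 mM Tris pH 8.5, TCEP and CAA, sonicated, then analysed by label-free quantitation.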
For orientation: Cellular ATP, detected with luciferase, serves as a proxy for viable cell number.

The mark [7] stands for this setting: AAK1 intact (IC50±sd)/μM, intact cells, ^a values estimated by extrapolation.
The mark [8] stands for this setting: AAK1 permeabilized (IC50±sd)/μM, permeabilized cells.
The mark [9] stands for this setting: protein NBPF19;NBPF8;NBPF10;NBPF15;NBPF26;NBPF14;NBPF1;NBPF12, MCF, 0.25µM, set4.
Where [10] appears, read: protein NBPF19;NBPF8;NBPF26;NBPF14;NBPF12;NBPF10;NBPF15;NBPF1, MCF7, 2.5 µM, set3.
Where [11] appears, read: protein NUDT4;NUDT11;NUDT10, MCF, 0.25µM, set4.
Where [12] appears, read: protein UQCRHL;UQCRH, MCF, 0.25µM, set4.
Where [13] appears, read: mean of triplicates, ^b/^c values estimated.

Chain of full-length AAK1 (Q2M2I8 whole entry): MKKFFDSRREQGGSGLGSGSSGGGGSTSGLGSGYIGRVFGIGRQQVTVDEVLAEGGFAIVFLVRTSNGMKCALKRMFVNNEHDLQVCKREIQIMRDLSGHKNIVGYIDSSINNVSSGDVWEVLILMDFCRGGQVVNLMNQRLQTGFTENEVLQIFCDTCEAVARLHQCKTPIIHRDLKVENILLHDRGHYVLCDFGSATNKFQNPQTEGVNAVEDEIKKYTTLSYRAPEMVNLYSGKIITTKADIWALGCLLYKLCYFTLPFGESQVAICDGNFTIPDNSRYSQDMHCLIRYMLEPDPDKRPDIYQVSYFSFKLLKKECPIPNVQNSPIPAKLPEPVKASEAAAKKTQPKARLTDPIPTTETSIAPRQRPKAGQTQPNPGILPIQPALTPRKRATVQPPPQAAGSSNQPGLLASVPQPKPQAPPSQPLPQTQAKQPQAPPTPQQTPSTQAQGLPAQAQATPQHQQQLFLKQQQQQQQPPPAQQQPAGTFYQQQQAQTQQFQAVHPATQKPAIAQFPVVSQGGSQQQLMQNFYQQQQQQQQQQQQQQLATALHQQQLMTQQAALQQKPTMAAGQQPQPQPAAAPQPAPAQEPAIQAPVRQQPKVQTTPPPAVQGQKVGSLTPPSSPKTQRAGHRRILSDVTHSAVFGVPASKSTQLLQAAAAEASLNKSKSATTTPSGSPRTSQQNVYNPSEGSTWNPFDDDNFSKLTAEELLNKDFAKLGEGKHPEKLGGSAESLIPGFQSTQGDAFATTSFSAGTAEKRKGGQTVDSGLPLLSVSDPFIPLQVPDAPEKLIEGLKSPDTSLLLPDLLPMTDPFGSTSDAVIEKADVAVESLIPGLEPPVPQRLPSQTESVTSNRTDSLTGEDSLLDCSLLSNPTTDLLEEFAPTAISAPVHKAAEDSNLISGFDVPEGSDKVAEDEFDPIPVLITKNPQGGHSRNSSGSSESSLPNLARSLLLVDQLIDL
T3 sequence (A0A096LP01 whole entry): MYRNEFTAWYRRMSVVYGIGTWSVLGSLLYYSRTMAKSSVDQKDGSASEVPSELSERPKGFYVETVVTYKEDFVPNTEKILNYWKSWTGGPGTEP
T1 sequence (O96013 291-591): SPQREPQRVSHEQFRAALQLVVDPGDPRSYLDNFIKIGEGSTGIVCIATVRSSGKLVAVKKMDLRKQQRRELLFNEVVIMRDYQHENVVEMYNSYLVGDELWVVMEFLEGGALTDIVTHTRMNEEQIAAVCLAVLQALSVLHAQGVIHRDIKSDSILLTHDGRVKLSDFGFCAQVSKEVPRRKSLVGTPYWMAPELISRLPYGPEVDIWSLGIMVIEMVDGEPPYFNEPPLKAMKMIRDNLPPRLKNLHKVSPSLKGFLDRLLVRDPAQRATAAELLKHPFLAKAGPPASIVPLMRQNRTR

With `CC(C)(C)OC(=O)NCCOCCOCCOCCOCCC(=O)N1CCN(c2cc(Nc3cc(C4CC4)[nH]n3)nc(Nc3ccc(CC#N)cc3)n2)CC1` [4-L], the shift in melting temperature (ΔTm) (usually the shift of the melting midpoint relative to a reference) at 20 µM in data set [1] is 11 °C; in data set [3], 2.65 °C. Moreover, the IC50 was 0.099 ± 0.011 µM in data set [2] (setting [7]) and 0.023 ± 0.004 µM in data set [2] (setting [8]).

For `CCOC(=O)c1cc(Nc2cc(C3CC3)[nH]n2)nc(Nc2ccc(CC#N)cc2)n1` [compound 5], the shift in melting temperature (ΔTm) at 20 µM amounted to 7.87 °C in data set [1] and 5.55 °C in data set [3]. Further, the “kinase downregulation profile compared with Jurkat cells” value in data set [4] (MCF-7 cells, 0.25 μM, 6 h) is recorded as “comparable downregulation profiles”. Besides, the “log2FC (compound/DMSO)” value in data set [4] (setting [9]) is listed as 0.03286; in data set [4] (setting [10]), -0.1342; in data set [4] (setting [11]), 0.03432; in data set [4] (setting [12]), 0.1631; in data set [5] (MCF7, 2.5 µM, set3), -0.4501; in data set [5] (MCF, 0.25µM, set4) it was 0.2815. In addition, the “P.Value (compound/DMSO)” value in data set [5] (MCF7, 2.5 µM, set3) worked out at 0.03457; in data set [5] (MCF, 0.25µM, set4), 0.002655. Also, the IC50 in data set [2] (setting [7]) is 0.012 ± 0.002 µM; in data set [2] (setting [8]), 0.015 ± 0.002 µM; in data set [6] (setting [13]), 3.1 ± 1 µM. For the same compound, in data set [6] (setting [13]), the “IC50±sd/μM (cell viability)” value was “single-digit micromolar”.

In the case of `Cc1ncsc1-c1ccc(CNC(=O)[C@@H]2C[C@@H](O)CN2C(=O)[C@@H](NC(=O)CCCCCCN2CCN(c3ccc(Nc4ncc(Cl)c(Nc5ccccc5C(N)=O)n4)cc3)CC2)C(C)(C)C)cc1` [6-d], the kinase degradation entry in data set [4] (MCF-7 cells, 1 μM, 6 h) is “significant degradation of several kinases”. For the same compound, the “log2FC (compound/DMSO)” value is reported as 0.09474 in data set [4] (protein ARHGEF5;ARHGEF35, MCF7, 1 µM, set5); -0.4722 in data set [4] (protein NBPF19;NBPF15;NBPF8;NBPF10;NBPF3;NBPF11;NBPF26;NBPF14;NBPF1;NBPF12, MCF7, 1 µM, set5); -0.9636 in data set [5] (MCF7, 1 µM, set5). For the same compound, the “P.Value (compound/DMSO)” value in data set [5] (MCF7, 1 µM, set5) came to 0.0001847. In addition, the IC50 in data set [2] (setting [7]) is 0.1 ± 0.008 µM; in data set [2] (setting [8]), 0.053 ± 0.003 µM; in data set [6] (setting [13]) it was approximately 0.1 µM. Besides, the “effect on cell viability (cytotoxicity)” value in data set [6] is on record as “particularly pronounced effects on cell viability”.

Regarding `Cc1ncsc1-c1ccc(CNC(=O)[C@@H]2C[C@@H](O)CN2C(=O)[C@@H](NC(=O)CCOCCOCCOCCOCCN2CCN(c3ccc(Nc4ncc(Cl)c(Nc5ccccc5C(N)=O)n4)cc3)CC2)C(C)(C)C)cc1` [6-b], the kinase degradation entry is “Few kinases were degraded” in data set [4] (MCF-7 cells, 0.25 μM, 6 h); “significant degradation of several kinases” in data set [4] (MCF-7 cells, 1 μM, 6 h); “the number of degraded kinases was again lower” in data set [4] (MCF-7 cells, 2.5 μM, 6 h). For the same compound, the “log2FC (compound/DMSO)” value is recorded as -0.06617 in data set [4] (setting [9]); -0.2581 in data set [4] (setting [10]); -0.7206 in data set [4] (protein NBPF19;NBPF15;NBPF8;NBPF10;NBPF26;NBPF14, MCF7, 1 µM, set1.1); -0.1525 in data set [4] (protein NUDT4, MCF7, 1 µM, set1.1); 0.182 in data set [4] (setting [11]); 0.8692 in data set [4] (setting [12]). Besides, the “log2FC (compound/DMSO)” value in data set [5] (MCF7, 2.5 µM, set3) is listed as -0.4049; in data set [5] (MCF, 0.25µM, set4) it was -0.03906. Further, the “P.Value (compound/DMSO)” value in data set [5] (MCF7, 2.5 µM, set3) was 0.00484; in data set [5] (MCF, 0.25µM, set4), 0.5319. The IC50 in data set [2] (setting [7]) is 0.13 ± 0.003 µM; in data set [2] (setting [8]), 0.055 ± 0.002 µM; in data set [6] (setting [13]), 3.1 ± 0.8 µM.

With `CC(C)(C)OC(=O)NCCCOCCOCCOCCCNC(=O)c1cc(Nc2cc(C3CC3)[nH]n2)nc(Nc2ccc(CC#N)cc2)n1` [5-L], the figures for the shift in melting temperature (ΔTm) at 20 µM in data set [1] and in data set [3] were 9.26 °C and 2.91 °C, respectively. Moreover, the values for the IC50 in data set [2] (setting [7]), in data set [2] (setting [8]) and in data set [6] (setting [13]) were 0.308 ± 0.032 µM, 0.07 ± 0.012 µM and 5.7 ± 1.5 µM, respectively.
